From ChEMBL document CHEMBL1201862, “PubChem BioAssay data set” (2004)
Activity calls are given as the source filed them.

Key:
Coagulation factor XII = target: T1, Coagulation factor XII (Homo sapiens, UniProt P00748); experiment: activated coagulation factor XII inhibitor potency, concentration-effect curve, cell-free (AID 716); assay type: functional
T1 sequence (P00748 whole entry): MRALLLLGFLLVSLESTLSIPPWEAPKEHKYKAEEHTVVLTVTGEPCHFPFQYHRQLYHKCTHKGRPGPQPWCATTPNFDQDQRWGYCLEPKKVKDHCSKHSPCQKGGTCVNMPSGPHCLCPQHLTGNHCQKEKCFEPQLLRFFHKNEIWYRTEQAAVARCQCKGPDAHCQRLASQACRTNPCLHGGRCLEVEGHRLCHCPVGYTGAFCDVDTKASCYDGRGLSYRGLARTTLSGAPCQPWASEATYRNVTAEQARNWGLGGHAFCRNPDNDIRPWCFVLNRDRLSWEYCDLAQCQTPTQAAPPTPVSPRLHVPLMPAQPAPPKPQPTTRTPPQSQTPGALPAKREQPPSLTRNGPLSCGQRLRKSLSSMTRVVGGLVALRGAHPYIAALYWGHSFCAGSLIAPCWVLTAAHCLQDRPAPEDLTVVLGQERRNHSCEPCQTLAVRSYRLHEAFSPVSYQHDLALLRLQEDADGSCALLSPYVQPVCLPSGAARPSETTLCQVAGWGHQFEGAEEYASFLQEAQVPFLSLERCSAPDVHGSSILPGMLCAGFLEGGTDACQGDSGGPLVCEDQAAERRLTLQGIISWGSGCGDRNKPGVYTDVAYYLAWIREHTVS

[1] = target: Eukaryotic translation initiation factor 4E (Mus musculus, UniProt P63073); experiment: blockers of eIF4G binding by eIF4E – biochemical, TR-FRET, dose response (AID 855); assay type: functional;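 also: potency for disrupting eIF4E binding to eIF4GI seen as loss of FRET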
Chain of Eukaryotic translation initiation factor 4E (P63073 whole entry): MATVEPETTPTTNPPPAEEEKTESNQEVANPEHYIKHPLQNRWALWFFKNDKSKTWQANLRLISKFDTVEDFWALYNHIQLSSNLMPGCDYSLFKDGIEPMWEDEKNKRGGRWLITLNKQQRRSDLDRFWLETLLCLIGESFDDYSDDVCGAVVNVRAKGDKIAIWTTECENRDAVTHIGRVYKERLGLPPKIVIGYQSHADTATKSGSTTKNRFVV

[2] = target: T2, Glutathione-S-transferase (Schistosoma japonicum, UniProt Q26513); experiment: GST-antibody interaction or FRET quenching – biochemical, TR-FRET, artefact control for Vif-APOBEC3G degradation inhibitor project, dose response (AID 1117362); assay type: functional
T2 sequence (Q26513 whole entry): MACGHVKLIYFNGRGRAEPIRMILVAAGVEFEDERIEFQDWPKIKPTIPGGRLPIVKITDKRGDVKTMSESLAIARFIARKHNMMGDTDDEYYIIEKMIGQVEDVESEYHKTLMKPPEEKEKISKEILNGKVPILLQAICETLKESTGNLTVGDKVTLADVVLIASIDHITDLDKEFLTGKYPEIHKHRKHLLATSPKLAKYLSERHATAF

[3] = target: T3, Tyrosine-protein phosphatase non-receptor type 7 (Homo sapiens, UniProt P35236); experiment: redox-active compounds inhibiting HePTP phosphatase – biochemical, fluorescence, mechanism study (AID 2068); assay type: functional
T3 sequence (P35236 whole entry): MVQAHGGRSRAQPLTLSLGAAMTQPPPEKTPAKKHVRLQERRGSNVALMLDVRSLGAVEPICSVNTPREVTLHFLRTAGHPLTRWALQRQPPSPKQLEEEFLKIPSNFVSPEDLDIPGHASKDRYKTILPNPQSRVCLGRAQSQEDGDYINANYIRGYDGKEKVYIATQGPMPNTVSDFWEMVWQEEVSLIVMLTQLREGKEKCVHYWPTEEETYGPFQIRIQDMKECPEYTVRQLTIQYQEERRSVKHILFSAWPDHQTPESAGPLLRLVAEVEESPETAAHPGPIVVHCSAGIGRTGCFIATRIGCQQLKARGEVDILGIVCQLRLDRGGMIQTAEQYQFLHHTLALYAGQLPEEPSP

[4] = target: Induced myeloid leukemia cell differentiation protein Mcl-1 (Homo sapiens, UniProt Q07820); assay type: functional
Chain of Induced myeloid leukemia cell differentiation protein Mcl-1 (Q07820 whole entry): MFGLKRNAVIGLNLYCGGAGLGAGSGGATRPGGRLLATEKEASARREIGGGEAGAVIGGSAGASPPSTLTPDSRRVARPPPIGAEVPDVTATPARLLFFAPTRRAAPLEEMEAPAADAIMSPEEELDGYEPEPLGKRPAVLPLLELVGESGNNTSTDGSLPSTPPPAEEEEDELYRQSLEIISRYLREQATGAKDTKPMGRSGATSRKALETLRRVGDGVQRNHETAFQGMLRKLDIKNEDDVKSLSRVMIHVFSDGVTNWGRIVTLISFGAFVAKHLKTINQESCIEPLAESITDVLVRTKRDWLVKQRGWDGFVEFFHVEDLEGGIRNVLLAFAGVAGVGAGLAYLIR

Cytochrome P450 2D6 = Cytochrome P450 2D6 (Homo sapiens, UniProt P10635);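 also: CYP2D6 member of a cytochrome P450 panel assay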
Chain of Cytochrome P450 2D6 (P10635 whole entry): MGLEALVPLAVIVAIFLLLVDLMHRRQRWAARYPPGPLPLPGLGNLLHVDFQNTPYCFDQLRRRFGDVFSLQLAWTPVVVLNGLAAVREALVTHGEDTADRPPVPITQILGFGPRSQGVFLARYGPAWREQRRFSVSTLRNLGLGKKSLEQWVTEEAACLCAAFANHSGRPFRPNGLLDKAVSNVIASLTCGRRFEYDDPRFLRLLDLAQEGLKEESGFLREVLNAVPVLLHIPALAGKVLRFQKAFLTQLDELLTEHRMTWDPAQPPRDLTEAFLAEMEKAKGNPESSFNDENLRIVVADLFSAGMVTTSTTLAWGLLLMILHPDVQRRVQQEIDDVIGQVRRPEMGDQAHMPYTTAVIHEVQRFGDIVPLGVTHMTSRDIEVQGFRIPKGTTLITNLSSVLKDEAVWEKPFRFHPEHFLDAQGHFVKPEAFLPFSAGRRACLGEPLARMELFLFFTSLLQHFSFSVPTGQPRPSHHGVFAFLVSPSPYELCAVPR

Cytochrome P450 2C19 = Cytochrome P450 2C19 (Homo sapiens, UniProt P33261); experiment: Cytochrome panel assay with activity outcomes. Panel member name: p450-cyp2c19 Compounds with AC50 equal or less than 10 uM are considered active; assay type: functional; conditions: read-out: AC50
Chain of Cytochrome P450 2C19 (P33261 whole entry): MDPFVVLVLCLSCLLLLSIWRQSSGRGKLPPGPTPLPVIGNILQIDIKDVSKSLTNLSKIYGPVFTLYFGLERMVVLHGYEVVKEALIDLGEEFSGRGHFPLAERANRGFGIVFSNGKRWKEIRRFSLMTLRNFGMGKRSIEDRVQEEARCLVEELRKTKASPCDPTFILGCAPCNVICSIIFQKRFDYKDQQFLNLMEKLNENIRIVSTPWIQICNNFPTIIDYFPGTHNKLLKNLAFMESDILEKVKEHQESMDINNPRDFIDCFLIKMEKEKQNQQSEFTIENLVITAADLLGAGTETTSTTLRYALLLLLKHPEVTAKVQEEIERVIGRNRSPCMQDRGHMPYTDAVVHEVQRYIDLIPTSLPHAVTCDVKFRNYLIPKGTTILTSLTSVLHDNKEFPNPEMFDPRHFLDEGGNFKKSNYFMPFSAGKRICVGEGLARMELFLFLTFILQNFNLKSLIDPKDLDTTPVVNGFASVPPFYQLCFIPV

Bcl-2-like protein 10 = Bcl-2-like protein 10 (Homo sapiens, UniProt Q9HD36); experiment: Bcl-B/TR3 peptide binding disruption – biochemical, fluorescence polarization, FITC-TR3 peptide, selectivity assay for Bfl-1 inhibitor project, primary screen (AID 748);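 also: fluorescence polarization from a fluorescein-labelled TR3 peptide binding purified Bcl-B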
Chain of Bcl-2-like protein 10 (Q9HD36 whole entry): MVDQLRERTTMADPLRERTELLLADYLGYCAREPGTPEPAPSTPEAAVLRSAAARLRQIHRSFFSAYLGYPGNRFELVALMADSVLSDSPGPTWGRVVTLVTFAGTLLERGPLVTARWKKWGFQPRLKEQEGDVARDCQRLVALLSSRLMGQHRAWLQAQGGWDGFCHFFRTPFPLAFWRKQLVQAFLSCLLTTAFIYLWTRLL

Protein RecA = target: T4, Protein RecA (Mycobacterium tuberculosis, UniProt P9WHJ3); experiment: Fluorescence Cell-Free Homogeneous Dose Retest to Identify Inhibitors of RecA-Intein Splicing Activity. [Related pubchem assays (depositor defined):AID2097, AID2223, AID489010, AID492950]; assay type: functional
T4 sequence (P9WHJ3 whole entry): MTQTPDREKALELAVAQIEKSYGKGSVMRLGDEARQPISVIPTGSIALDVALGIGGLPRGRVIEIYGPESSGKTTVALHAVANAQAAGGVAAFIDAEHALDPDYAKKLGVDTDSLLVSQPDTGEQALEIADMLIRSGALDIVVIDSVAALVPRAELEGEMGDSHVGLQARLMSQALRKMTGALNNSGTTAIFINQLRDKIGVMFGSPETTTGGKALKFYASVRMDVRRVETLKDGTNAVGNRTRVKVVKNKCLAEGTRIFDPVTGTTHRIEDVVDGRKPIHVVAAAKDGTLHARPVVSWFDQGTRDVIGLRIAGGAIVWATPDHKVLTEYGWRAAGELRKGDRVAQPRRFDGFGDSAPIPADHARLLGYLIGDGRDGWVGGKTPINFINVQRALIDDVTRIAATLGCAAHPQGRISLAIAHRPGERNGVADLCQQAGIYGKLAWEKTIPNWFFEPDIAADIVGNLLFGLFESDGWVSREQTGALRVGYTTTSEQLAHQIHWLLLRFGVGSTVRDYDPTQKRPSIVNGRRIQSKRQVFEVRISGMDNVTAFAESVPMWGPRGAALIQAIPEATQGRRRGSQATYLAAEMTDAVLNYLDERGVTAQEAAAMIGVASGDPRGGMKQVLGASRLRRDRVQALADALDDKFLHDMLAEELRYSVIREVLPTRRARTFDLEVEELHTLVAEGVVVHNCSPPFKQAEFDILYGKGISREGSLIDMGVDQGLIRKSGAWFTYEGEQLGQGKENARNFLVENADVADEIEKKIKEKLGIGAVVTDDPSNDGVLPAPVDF

Cytochrome P450 3A4 = Cytochrome P450 3A4 (Homo sapiens, UniProt P08684);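 also: CYP3A4 tested as one member of a cytochrome P450 panel screen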
Chain of Cytochrome P450 3A4 (P08684 whole entry): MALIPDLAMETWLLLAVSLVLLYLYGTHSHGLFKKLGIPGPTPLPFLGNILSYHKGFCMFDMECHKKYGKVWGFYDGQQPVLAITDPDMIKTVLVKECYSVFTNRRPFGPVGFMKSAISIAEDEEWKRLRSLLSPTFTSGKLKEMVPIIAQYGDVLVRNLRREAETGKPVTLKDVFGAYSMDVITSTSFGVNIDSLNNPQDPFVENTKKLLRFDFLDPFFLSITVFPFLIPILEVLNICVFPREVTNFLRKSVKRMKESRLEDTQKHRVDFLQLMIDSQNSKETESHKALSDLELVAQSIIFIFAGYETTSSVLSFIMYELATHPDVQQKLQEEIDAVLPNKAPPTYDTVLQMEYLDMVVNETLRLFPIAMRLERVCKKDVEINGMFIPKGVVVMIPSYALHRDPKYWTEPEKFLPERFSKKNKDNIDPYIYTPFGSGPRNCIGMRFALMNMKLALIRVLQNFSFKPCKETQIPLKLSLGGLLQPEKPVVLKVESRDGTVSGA

[5] = target: T5, Replicative DNA helicase DnaB (Mycobacterium tuberculosis, UniProt P9WMR3); experiment: DnaB intein splicing inhibitors, dose response, biochemical, cell-free fluorescence (AID 449749); assay type: functional
T5 sequence (P9WMR3 whole entry): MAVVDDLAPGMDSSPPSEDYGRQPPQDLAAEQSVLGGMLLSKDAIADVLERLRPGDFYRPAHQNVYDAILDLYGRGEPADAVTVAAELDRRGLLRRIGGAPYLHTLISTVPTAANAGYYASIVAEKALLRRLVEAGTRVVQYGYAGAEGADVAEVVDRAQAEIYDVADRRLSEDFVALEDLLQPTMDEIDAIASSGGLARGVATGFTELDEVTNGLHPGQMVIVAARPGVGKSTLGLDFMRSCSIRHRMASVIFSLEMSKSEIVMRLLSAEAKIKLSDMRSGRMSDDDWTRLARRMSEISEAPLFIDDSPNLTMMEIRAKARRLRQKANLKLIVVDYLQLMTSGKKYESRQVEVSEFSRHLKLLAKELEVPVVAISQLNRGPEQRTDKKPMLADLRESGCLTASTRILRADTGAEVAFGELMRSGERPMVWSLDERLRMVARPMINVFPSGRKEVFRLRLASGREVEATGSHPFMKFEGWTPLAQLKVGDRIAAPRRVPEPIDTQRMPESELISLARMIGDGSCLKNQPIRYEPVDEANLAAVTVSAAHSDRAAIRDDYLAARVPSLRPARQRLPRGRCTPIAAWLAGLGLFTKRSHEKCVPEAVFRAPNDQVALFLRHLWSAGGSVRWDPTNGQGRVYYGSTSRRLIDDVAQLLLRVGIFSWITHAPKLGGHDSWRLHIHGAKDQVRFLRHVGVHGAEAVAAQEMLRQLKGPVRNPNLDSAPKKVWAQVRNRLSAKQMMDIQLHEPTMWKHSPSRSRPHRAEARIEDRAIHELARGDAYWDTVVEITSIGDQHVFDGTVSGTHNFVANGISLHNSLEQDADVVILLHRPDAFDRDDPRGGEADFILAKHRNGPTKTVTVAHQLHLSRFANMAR

Cn1c(COc2ccc(Cl)cc2)nc2ccccc2c1=O was tested, and the IC50 (Coagulation factor XII) was > 50 µM (inactive).
In the case of O=C(NCCO)Nc1ccc2nc(-c3ccco3)c(-c3ccco3)nc2c1, the IC50 [1] is reported as 50 µM (inactive), the IC50 [2] is reported as 48.5 µM (active) and the IC50 [3] is reported as 0.476 µM (active). For the same compound, the IC50 [4] was 0.579 µM (active).
With Cc1cnnn1-c1ccc(C(=O)CCl)cc1 the AC50 (Cytochrome P450 2D6) was 0.0794 µM (inconclusive), the AC50 (Cytochrome P450 2C19) was 39.8 µM (inconclusive) and the IC50 (Bcl-2-like protein 10) was > 50 µM (inactive). For the same compound, the EC50 (Protein RecA) was 11.3 µM (active), the AC50 (Cytochrome P450 3A4) was 25.1 µM (inconclusive) and the AC50 [5] was 29.1 µM (active).
